Measurements reported in patent US10632148B2, “Growth control of oral and superficial organisms using gallium compounds” (MOUNT SINAI SCHOOL OF MEDICINE, priority 2005, dated 2020).

Experiments:
[1] = test system: Vancomycin-resistant Enterococcus faecalis (VRE); assay: Susceptibility to gallium nitrate, MIC/MBC, macrodilution broth method; format: cell-based, Enterococcus faecalis ATCC 51575; conditions: Muller Hinton broth, tryptic soy agar with 5% sheep blood, 36° C. for 48 hours, 3.9 × 10^5 CFU/ml
Porphyromonas gingivalis = format: cell-based, Porphyromonas gingivalis ATCC 33277
Streptococcus mutans = assay: Susceptibility to gallium nitrate, MIC/MBC, microdilution broth method; format: cell-based, Streptococcus mutans ATCC 25175; conditions: Brain Heart Infusion broth, blood agar, 36° C. for 48 hours, 4.1 × 10^6 CFU/ml
Experimental: (§1) Susceptibility of various microorganisms to gallium was tested by determining the minimum inhibitory concentration (MIC) and minimum bactericidal concentration (MBC) for each microorganism using gallium nitrate. In general, MIC is determined by (i) mixing a series of broths, each containing a standard number of microorganisms, with serially diluted solutions of the gallium compound; and (ii) determining the MIC, after incubation, that is the lowest concentration of the gallium compound that has inhibited the growth of the microorganism. The lower the MIC, the more susceptible the organism is. The MBC is determined by subculturing an aliquot of each sample from the MIC test on an appropriate agar plate containing no gallium compound. After incubation, the MBC is determined to be the lowest concentration of the gallium compound at which no growth is observed.
(§2) Specifically, in the present experiment, two grams of gallium nitrate powder were dissolved in 10 ml of filter-sterilized deionized water and the resulting 20% (w/v) (i.e., 200 mg/ml) solution was once again filter-sterilized. […]
(§3) The growth of the microorganisms were determined by visual observation of turbidity in the samples. […]

Pseudomonas aeruginosa = assay: Susceptibility to gallium nitrate, MIC/MBC, macrodilution broth method; format: cell-based, Pseudomonas aeruginosa ATCC 15442; conditions: Muller Hinton broth, tryptic soy agar with 5% sheep blood, 36° C. for 48 hours, 7.6 × 10^5 CFU/ml
Escherichia coli O157:H7 = assay: Susceptibility to gallium nitrate, MIC/MBC, microdilution broth method; format: cell-based, Escherichia coli O157:H7 ATCC 35150; conditions: Muller Hinton broth, tryptic soy agar with 5% sheep blood, 36° C. for 48 hours, 1.38 × 10^6 CFU/ml
Experimental: as §1, §2, §3

Salmonella typhi = assay: Susceptibility to gallium nitrate, MIC/MBC, macrodilution broth method; format: cell-based, Salmonella typhi ATCC 6539; conditions: Muller Hinton broth, tryptic soy agar with 5% sheep blood, 36° C. for 48 hours, 8.3 × 10^5 CFU/ml
Campylobacter jejuni = assay: Susceptibility to gallium nitrate, MIC/MBC, microdilution broth method; format: cell-based, Campylobacter jejuni ATCC 29428; conditions: Muller Hinton broth, tryptic soy agar with 5% sheep blood, 36° C. for 48 hours, 4.9 × 10^5 CFU/ml
Experimental: as §1, §2, §3

[2] = test system: Methicillin-resistant Staphylococcus aureus (MRSA); assay: Susceptibility to gallium nitrate, MIC/MBC, macrodilution broth method; format: cell-based, Staphylococcus aureus ATCC 33592; conditions: Muller Hinton broth, tryptic soy agar with 5% sheep blood, 36° C. for 48 hours, 5.2 × 10^5 CFU/ml
[3] = healthy adults, intravenous infusion for at least 7 days; cited from earlier work
Candida albicans = assay: Susceptibility to gallium nitrate, MIC/MBC, microdilution broth method; format: cell-based, Candida albicans ATCC 10231; conditions: 27° C. for 48 hours, 9.75 × 10^5 CFU/ml
Experimental: as §1, §2, §3

O=[N+]([O-])[O-].O=[N+]([O-])[O-].O=[N+]([O-])[O-].[Ga+3] [gallium nitrate]
MBC [1]: 25000 µg/mL | MBC (Porphyromonas gingivalis): <780 µg/mL | MBC (Streptococcus mutans): 5000 µg/mL | MBC (Pseudomonas aeruginosa): 6250 µg/mL | MBC (Escherichia coli O157:H7): 6250 µg/mL | MBC (Salmonella typhi): 6250 µg/mL | MBC (Campylobacter jejuni): <780 µg/mL | MBC [2]: 12500 µg/mL | tolerated dose [3]: at least 200 mg/m^2/day | MIC (Candida albicans; Sabouraud Dextrose broth): 10000 µg/mL | MBC (Candida albicans; Sabouraud dextrose agar): >100000 µg/mL
